Measured values taken from patent US20240360114A1 (SIRONAX LTD., priority 2021, published 2024).

Tested on: HT-1080 cells
Experiment: HT-1080 cell viability assay (ferroptosis induced by RSL3, Cell Titer-Glo)
Format: cell-based
Settings: Homo sapiens, HT-1080, 20 h, ferroptosis inducer RSL3, 20 hours, ferroptosis inhibitory activity
Summary of the method: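 Cells seeded overnight, then co-treated with RSL3 and compound (3-fold, 10-point dilution, top 1.1 μM) for 20 hours. Viability by CellTiter-Glo luminescence, normalized to untreated controls; EC50 from sigmoidal non-linear regression.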

Row | Structure (SMILES) | EC50 (Table 2) | EC50 (Table 3)
1 | CN(CC(F)(F)F)c1ccc2cc(NC3CC(N)C3)ccc2n1 (centres unmarked) [Compound 655, N^6-(3-aminocyclobutyl)-N^2-methyl-N^2-(2,2,2-trifluoroethyl) quinoline-2,6-diamine] | – | 0.1 to 100 nM
2 | CC(C)C1CCN(c2ncc(NC3C4CC5CC3CC(NC(N)=O)(C5)C4)cn2)CC1 (centres unmarked) [Compound 408, 1-(4-((2-(4-isopropylpiperidin-1-yl)pyrimidin-5-yl)amino)adamantan-1-yl)urea] | 0.1 to 100 nM | –
3 | CC1CN(c2c(F)cc(NC[C@H]3CC[C@H](N)CC3)cc2F)CC(C)O1 (some centres unmarked) [Compound 439, N-(((1r,4r)-4-aminocyclohexyl)methyl)-4-(2,6-dimethylmorpholino)-3,5-difluoroaniline] | 100 to 1000 nM | –
4 | COCCCCOc1cc(NC2CCC(N)CC2)ccc1N1CCC(C(F)(F)F)CC1 (centres unmarked) [Compound 39, N1-(3-(4-methoxybutoxy)-4-(4-(trifluoromethyl)piperidin-1-yl)phenyl)cyclohexane-1,4-diamine] | 0.1 to 100 nM | –
5 | CC(=O)N1C(C)CN(c2ccc(NC3CC4(CC(N)C4)C3)c(C)n2)CC1C (centres unmarked) [Compound 600] | – | 100 to 1000 nM
6 | CC(C)(C)c1ccc(NC2CCC(CNC(=O)[C@H]3CNC(=O)N3)CC2)cc1 (single isomer, unassigned) [Compound 143A] | 100 to 1000 nM | –
7 | CCC1CCN(c2ncc(NC3CCC(N)CC3)cn2)CC1 (centres unmarked) [Compound 43, N1-(2-(4-ethylpiperidin-1-yl)pyrimidin-5-yl)cyclohexane-1,4-diamine] | 0.1 to 100 nM | –
8 | CC(C)C1CCN(c2ncc(NC[C@H]3CC[C@H](NC(N)=O)CC3)cn2)CC1 [Compound 409, 1-((1r,4r)-4-(((2-(4-isopropylpiperidin-1-yl)pyrimidin-5-yl)amino)methyl)cyclohexyl)urea] | 0.1 to 100 nM | –
9 | Cc1nc(NC(C)(C)C)ccc1NC1CC2(CC(N)C2)C1 (centres unmarked) [Compound 596, N^5-(6-aminospiro [3.3]heptan-2-yl)-N^2-(tert-butyl)-6-methylpyridine-2,5-diamine] | – | 0.1 to 100 nM
10 | CC(C)c1nc(N2C[C@@H](C)O[C@@H](C)C2)ccc1NC1CC2(CC(N)C2)C1 (stereo partly drawn) [Compound 613, N^2-(6-((2S, 6R)-2,6-dimethylmorpholino)-2-isopropylpyridin-3-yl)spiro[3.3]heptane-2,6-diamine] | – | 0.1 to 100 nM
11 | COC1CCN(c2ccc(NC3CC4(CC(N)C4)C3)c(C)n2)CC1 (centres unmarked) [Compound 527] | 0.1 to 100 nM | –
12 | CC(C)(C)c1ccc(NC2CCC(NCCCCO)CC2)cc1 (centres unmarked) [Compound 321, 4-((4-((4-(tert-butyl)phenyl)amino)cyclohexyl)amino) butan-1-ol] | 100 to 1000 nM | –
13 | CCc1cc(NC2CCC(N)CC2)ccc1C(C)(C)C (centres unmarked) [Compound 329, 1-N-(4-(tert-butyl)-3-ethylphenyl)cyclohexane-1,4-diamine] | 0.1 to 100 nM | –
14 | CCOCCCc1ccc(NC2CCC(N)CC2)cc1 (centres unmarked) [Compound 262, (1s,4s)-N1-(4-(3-ethoxypropyl)phenyl)cyclohexane-1,4-diamine] | 100 to 1000 nM | –
15 | Cc1cc(N2CC(C)OC(C)C2)ccc1NC1CCCCC1N (centres unmarked) [Compound 442, N1-(4-(2,6-dimethylmorpholino)-2-methylphenyl)cyclohexane-1,2-diamine] | 100 to 1000 nM | –
16 | Cc1nc(N2CCC(C)(C)CC2)ccc1NC[C@H]1CC[C@H](N)CC1 [Compound 617, N-(((1r,4r)-4-aminocyclohexyl)methyl)-6-(4,4-dimethylpiperidin-1-yl)-2-methylpyridin-3-amine] | – | 0.1 to 100 nM
17 | CC1CN(c2ccc(NC[C@H]3CC[C@H](N)CC3)cc2C#N)CC(C)O1 (some centres unmarked) [Compound 468, 5-((((1r,4r)-4-aminocyclohexyl)methyl)amino)-2-(2,6-dimethylmorpholino)-benzonitrile] | 0.1 to 100 nM | –
18 | NC1CCC(Nc2ccc(N3CCC(C(F)(F)F)CC3)c(OCCO)c2)CC1 (centres unmarked) [Compound 416, (5-((4-aminocyclohexyl)amino)-2-(4-(trifluoromethyl)piperidin-1-yl)phenoxy) ethan-1-ol] | 0.1 to 100 nM | –
19 | CC1(C)CCC(c2ccc(NC3CCC(NS(N)(=O)=O)CC3)cc2)CC1 (centres unmarked) [Compound 249, N-(4-{[4-(4,4-dimethylcyclohexyl)phenyl]amino}cyclohexyl)aminosulfonamide] | 0.1 to 100 nM | –
20 | CC(C)C1CCN(c2ncc(NC3CCC(N)C3)cn2)CC1 (centres unmarked) [Compound 38, N1-(2-(4-isopropylpiperidin-1-yl)pyrimidin-5-yl)cyclopentane-1,3-diamine] | 0.1 to 100 nM | –
21 | Cc1nc(N2CC3(CCOCC3)C2)ccc1NC1CC2(CC(N)C2)C1 (centres unmarked) [Compound 494, N2-(2-methyl-6-(7-oxa-2-azaspiro[3.5]nonan-2-yl)pyridin-3-yl)spiro[3.3]heptane-2,6-diamine] | 100 to 1000 nM | –
22 | Cc1nc(N2CC[Si](C)(C)CC2)ccc1NC1CC2(C1)CC(C(N)=O)C2 (centres unmarked) [Compound 615, 6-((6-(4,4-dimethyl-1,4-azasilinan-1-yl)-2-methylpyridin-3-yl)amino)spiro[3.3]heptane-2-carboxamide] | – | 0.1 to 100 nM
23 | CC1(N)CCC(Nc2ccc(C(C)(C)C)cc2)CC1 (single isomer, unassigned) [Compound 231A, N1-(4-(tert-butyl)phenyl)-4-methylcyclohexane-1,4-diamine] | 0.1 to 100 nM | –
24 | CC1(C)CCC(c2ccc(NCCCCN3CCCC3)cc2)CC1 [Compound 105, 4-(4,4-dimethylcyclohexyl)-N-(4-(pyrrolidin-1-yl)butyl)aniline] | 0.1 to 100 nM | –
25 | CCCCCCOc1cc(NC2CCC(N)CC2)ccc1C(C)(C)C (centres unmarked) [Compound 271, N1-(4-(tert-butyl)-3-(hexyloxy)phenyl)cyclohexane-1,4-diamine] | 0.1 to 100 nM | –
26 | Cc1nc(N2CC(C)N(CC(F)(F)F)C(C)C2)ccc1NC1CC2CCC(C1)N2 (centres unmarked) [Compound 643, N-(6-(3,5-dimethyl-4-(2,2,2-trifluoroethyl)piperazin-1-yl)-2-methylpyridin-3-yl)-8-azabicyclo[3.2.1]octan-3-amine] | – | 0.1 to 100 nM

Continued, values first:

Row | EC50 (Table 2) | EC50 (Table 3) | Structure (SMILES)
27 | 1000 to 10000 nM | – | NC1CCC(Nc2cccc3c2CCC3)CC1 (single isomer, unassigned) [Compound 191A, N1-(2,3-dihydro-1H-inden-4-yl)cyclohexane-1,4-diamine]
28 | 0.1 to 100 nM | – | CC1(C)CCC(c2ccc(NC3CCC(CN)C3)cc2)CC1 (centres unmarked) [Compound 83, N-(3-(aminomethyl)cyclopentyl)-4-(4,4-dimethylcyclohexyl)aniline]
29 | 0.1 to 100 nM | – | NC1CC2(C1)CC(Nc1cnc(N3CCC(C(F)(F)F)CC3)nc1)C2 (centres unmarked) [Compound 359, N2-(2-(4-(trifluoromethyl)piperidin-1-yl)pyrimidin-5-yl)spiro[3.3]heptane-2,6-diamine]
30 | 0.1 to 100 nM | – | CN(C)CCCN1CCC(Nc2ccc(C3CCC(C)(C)CC3)cc2)CC1=O (centres unmarked) [Compound 247, 1-(3-(dimethylamino)propyl)-4-((4-(4,4-dimethylcyclohexyl)phenyl)amino)piperidin-2-one]
31 | 0.1 to 100 nM | – | N[C@H]1CC[C@H](CNc2ccc(N3CCC(C(F)(F)F)CC3)nc2F)CC1 [Compound 395, N-(((1r, 4r)-4-aminocyclohexyl)methyl)-2-fluoro-6-(4-(trifluoromethyl)piperidin-1-yl)pyridin-3-amine]
32 | – | 0.1 to 100 nM | Cc1cc(N2CC(C)(C)OC(C)(C)C2)ccc1NC1CC2(CC(N)C2)C1 (centres unmarked) [Compound 628, N^2-(2-methyl-4-(2,2,6,6-tetramethylmorpholino)phenyl)spiro[3.3]heptane-2,6-diamine]
33 | 0.1 to 100 nM | – | NC1CC2(C1)CC(Nc1ccc(N3CCC(C(F)(F)F)CC3)cc1)C2 (centres unmarked) [Compound 357, N2-(4-(4-(trifluoromethyl)piperidin-1-yl)phenyl)spiro[3.3]heptane-2,6-diamine]
34 | 0.1 to 100 nM | – | Cc1cc(NC2CC(C(N)=O)C2)ccc1N1CCC(C(F)(F)F)CC1 (centres unmarked) [Compound 437, 3-((3-methyl-4-(4-(trifluoromethyl)piperidin-1-yl)phenyl)amino)cyclobutane-1-carboxamide]
35 | 0.1 to 100 nM | – | CN(C)C(=O)C1CCC(Nc2ccc(N3CCC(C(F)(F)F)CC3)cc2)CC1 (centres unmarked) [Compound 366, N,N-dimethyl-4-((4-(4-(trifluoromethyl)piperidin-1-yl)phenyl)amino)cyclohexane-1-carboxamide]
36 | 0.1 to 100 nM | – | O=C1NCC(C(=O)NC2CC3(C2)CC(Nc2ccc(N4CCC(C(F)(F)F)CC4)cc2)C3)N1 (centres unmarked) [Compound 374, 2-oxo-N-(6-((4-(4-(trifluoromethyl)piperidin-1-yl)phenyl)amino)spiro[3.3]heptan-2-yl)imidazo lidine-4-carboxamide]
37 | 0.1 to 100 nM | – | CC(C)C1CCN(c2ncc(NC3CCC(C)(N)CC3)cn2)CC1 (centres unmarked) [Compound 50, N1-(2-(4-isopropylpiperidin-1-yl)pyrimidin-5-yl)-4-methylcyclohexane-1,4-diamine]
38 | 0.1 to 100 nM | – | NC1CCC(Nc2ccc(N3CCC(C(F)(F)F)CC3)cc2)CC1 (centres unmarked) [Compound 40, N1-(4-(4-(trifluoromethyl)piperidin-1-yl)phenyl)cyclohexane-1,4-diamine]
39 | 0.1 to 100 nM | – | Cc1nc(N2CC(C)OC(C)C2)ccc1NC1CCC(CCCN)CC1 (centres unmarked) [Compound 534, N-(4-(3-aminopropyl)cyclohexyl)-6-(2,6-dimethylmorpholino)-2-methylpyridin-3-amine]
40 | 0.1 to 100 nM | – | CC(C)(C)c1ccc(NC2CCC(CN)C2)cc1 (centres unmarked) [Compound 241, N-(3-(aminomethyl)cyclopentyl)-4-(tert-butyl)aniline]
41 | 100 to 1000 nM | – | CC1CN(c2ccc(NC3CC4(CC(N)C4)C3)cn2)CC(C)O1 (centres unmarked) [Compound 477, N2-(6-(2,6-dimethylmorpholino)pyridin-3-yl)spiro[3.3]heptane-2,6-diamine]
42 | 0.1 to 100 nM | – | Cc1cc(NC2CCC(N)CC2)ccc1C(C)(C)C (centres unmarked) [Compound 217, N1-(4-(tert-butyl)-3-methylphenyl)cyclohexane-1,4-diamine]
43 | 0.1 to 100 nM | – | CC1(C)CCC(c2ccc(NC3CCOCC3)cc2)CC1 [Compound 93, N-(4-(4,4-dimethylcyclohexyl)phenyl)tetrahydro-2H-pyran-4-amine]
44 | 0.1 to 100 nM | – | CC(N)C1CCC(Nc2ccc(C3CCC(C)(C)CC3)cc2)CC1 (centres unmarked) [Compound 140, N-(4-(1-aminoethyl)cyclohexyl)-4-(4,4-dimethylcyclohexyl)aniline]
